Laboratory results taken from patent US9353119B2, “Composition for preventing and treating non-small cell lung cancer, containing pyrazino-triazine derivatives” (JW PHARMACEUTICAL CORPORATION, priority 2011, dated 2016).
Counter-ions that a name gives are not always drawn. Like-named read-outs stand apart in the source and are kept apart here. Each block holds one compound with its values, some of them ahead of it.

Assays:
NCI-H1975 cells [1] = test: In vivo anticancer activity, NCI-H1975 xenograft (Experimental Example 5)
Description: From Day 11 (D11) to Day 22 (D22) after the transplantation, three groups of the NCI-H1975-transplanted mice were administered with a bisodium salt of the compound of Chemical Formula 2-2 or cisplatin as summarized in Table 9, below.
The mean volume of tumors before the experiment (mean starting tumor volume) was 118 mm^3

NCI-H23 = test: In vitro cell growth inhibition (CellTiter-Glo), NCI-H23; type: cell-based; settings: Homo sapiens; NCI-H23, 72 hrs
Description: (§1) This experiment aims to evaluate the in vitro anticancer activity of the pyrazino-triazine derivative (Chemical Formula 1-1P) of the present invention in various NSCLC cell lines.
(§2) NSCLC cells lines were seeded at a density of 5×10^3 cells/well into 96-well plates. Compound 1-1P and the reference drug doxorubicin were serially diluted by ½ in the concentration range of from 0.001 μM to 1 μM and the cells in each well were treated with each dilution in duplicate, followed by incubation for 72 hours in a 37° C., 5% CO2 incubator. CellTiter-Glo® (Luminescent Cell Viability Assay, #G7573, Promega) was added in an amount of 100 μL to each well and shaken for 2 min to lyze the cells. After incubation for 10 min at room temperature (25° C.), luminescence from each well was on a luminometer (Envision (Perkinelmer).
(§3) The anticancer activity depending on the administration of Compound 1-1P was evaluated over seven different NSCLC cell lines by cell growth inhibition 50 (GI50), a concentration needed to reduce the growth of treated cells to half that of untreated cells, calculated according to the following formula. GI50=(50−(y1−((y1−y2)/(x1−x2))*x1)/((y1−y2)/(x1−x2))
(§4) x1, x2=50% cell kill or lethal concentrations
(§5) y1, y2=cell densities at 50% cell kill or lethal concentrations

NCI-H1650 = test: In vitro cell growth inhibition (CellTiter-Glo), NCI-H1650; type: cell-based; settings: Homo sapiens; NCI-H1650, 72 hrs
Description: as §1, §2, §3, §4, §5

NCI-H1975 = test: In vitro cell growth inhibition (CellTiter-Glo), NCI-H1975; type: cell-based; settings: Homo sapiens; NCI-H1975, 72 hrs
Description: as §1, §2, §3, §4, §5

HCC827 = test: In vitro cell growth inhibition (CellTiter-Glo), HCC827; type: cell-based; settings: Homo sapiens; HCC827, 72 hrs
Description: as §1, §2, §3, §4, §5

NCI-H460 = test: In vitro cell growth inhibition (CellTiter-Glo), NCI-H460; type: cell-based; settings: Homo sapiens; NCI-H460, 72 hrs
Description: as §1, §2, §3, §4, §5

A549 = test: In vitro cell growth inhibition (CellTiter-Glo), A549; type: cell-based; settings: Homo sapiens; A549, 72 hrs
Description: as §1, §2, §3, §4, §5

PC6 = test: In vitro cell growth inhibition (CellTiter-Glo), PC6; type: cell-based; settings: Homo sapiens, PC-6; PC6, 72 hrs
Description: as §1, §2, §3, §4, §5

NCI-H1975 cells [2] = test: In vivo anticancer activity, NCI-H1975 xenograft (Experimental Example 1); parameters: species or system Balb/c nude mice; settings: for TGI %: Table 7 summary, NCI-H1975 (EGFR TKI resistant)
Description: Measurements of body weights and tumor sizes were randomized for n=7 per group using in-house randomization software. The tumor size was calculated from measurements of the longest axis (length, m) and the shortest axis (width, m) according to the following formula: Tumor size (mm^3): Width (mm)×Width (mm)×Length (mm)/2
The anticancer activity depending on the administration was evaluated by tumor growth inhibition, (TGI, %) calculated according to the following formulas.
When the tumor size of the drug-administered group is larger than the initial tumor size: % TGI=100*(1−(tumor volumeDay X−tumor volumeInitial for treated group)/(tumor volumeDay X−tumor volumeInitial for Vehicle group))
When the tumor size of the drug-administered group is smaller than the initial tumor size: % TGI=100+100*(1−(Treated group tumor volumeDayX/Treated group tumor volumeinitial))
Herein, mortality indicated deaths resulting from drug administration.
Herein, maximum body weight loss (MBL) means the largest loss of body weight caused by drug administration and is an important factor for determining maximum tolerable dose (MTD). The change of body weight was expressed as percentage of the body weight just before drug administration (D1). As a rule, the dose at which 10% or more of the body weight was lost was determined as the MTD.

NCI-H460 cells = type: in vivo, Balb/c nude mice; settings: for TGI %: Table 7 summary, NCI-H460 (EGFR TKI resistant), Cpd 1-1 given TIW
Description: From Day 6 (D1) to […] (D12) after the transplantation, three groups of the NCI-H460-transplanted mice were administered with compound of Chemical Formula 1-1 or paclitaxel as summarized in Table 3, below.

HCC827 cells = test: In vivo anticancer activity, HCC827 xenograft (Experimental Example 3); settings: for MBL (%): D11; for TGI %: Table 7 summary, HCC827 (EGFR TKI sensitive), dose not given
NCI-H1975 cells [3] = test: In vivo anticancer activity, NCI-H1975 xenograft (Experimental Example 6); parameters: species or system Balb/c nude mice
Description: From Day 11 (D11) to Day 22 (D22) after the transplantation, five groups of the NCI-H1975-transplanted mice were administered with compounds 1-3 and 1-5 as summarized in Table 11, below.

NCI-H1975 cells [4] = test: In vivo anticancer activity, NCI-H1975 xenograft (Experimental Example 8); parameters: species or system Balb/c nude mice; settings: Group 2: 60 mg/kg IV BIW for 2 weeks
Description: From Day 11 (D11) to Day 22 (D22) after the transplantation, two groups of the NCI-H1975-transplanted mice were administered with compound 1-7 as summarized in Table 13, below.

[5] = Group 2: 200 mg/kg IV QDx5 for 2 weeks
[6] = Group 3: cisplatin 2.5 mg/kg IV BIW for 2 weeks
[7] = Group 2: 1-1 100 mg/kg iv once a day, ten injections (D8-12, 15-19)
[8] = Group 3: 1-1 150 mg/kg iv once a day, ten injections (D8-12, 15-19)
[9] = Group 2: 1-1 150 mg/kg iv, six injections (D1, 3, 5, 8, 10, 12)
[10] = Group 2: 1-1 100 mg/kg iv once a day, 20 injections over four weeks
[11] = Group 3: 1-1 150 mg/kg iv once a day, 20 injections over four weeks
[12] = Group 2: 40 mg/kg IV QDx5 for 2 weeks
[13] = Group 3: 30 mg/kg IV QDx5 for 2 weeks
[14] = Group 6: paclitaxel 7.5 mg/kg ip once a week, two injections
[15] = Group 3: paclitaxel 20 mg/kg ip (D1, 3, 5, 8, 10, 12)
[16] = Group 6: paclitaxel 10 mg/kg ip once per week, four injections

SMILES: C[C@H]1[C@H]2N(C(=O)CN(C)N2C(=O)NCc2ccccc2)[C@@H](Cc2ccc(OP(=O)(O)O)cc2)C(=O)N1Cc1cccc2cccnc12 [2Na Salt of Cpd. 2-2]
MBL (%) (NCI-H1975 cells [1]; [5]): no loss | Mortality (NCI-H1975 cells [1]; [5]): 0/6 | TGI % D22 (NCI-H1975 cells [1]; [5]): 27% | Tumor size @D 22 (Mean ± S.E. mm^3) (NCI-H1975 cells [1]; [5]): 720 ± 104 mm^3

SMILES: N.N.[Cl][Pt][Cl] [Cisplatin, reference compound]
Mortality (NCI-H1975 cells [1]; [6]): 0/6 | TGI % D22 (NCI-H1975 cells [1]; [6]): 23% | Tumor size @D 22 (Mean ± S.E. mm^3) (NCI-H1975 cells [1]; [6]): 750 ± 53 mm^3

GI50 (NCI-H23): 67 nM | GI50 (NCI-H1650): 156 nM | GI50 (NCI-H1975): 111 nM | GI50 (HCC827): 115 nM | GI50 (NCI-H460): 272 nM | GI50 (A549): 372 nM
SMILES: C=CCN1CC(=O)N2[C@@H](Cc3ccc(O)cc3)C(=O)N(Cc3cccc4c(C(C)=O)cn(C)c34)C[C@@H]2N1C(=O)NCc1ccccc1 [Compound 1-1P]
GI50 (PC6): 493 nM

SMILES: C=CCN1CC(=O)N2[C@@H](Cc3ccc(OP(=O)([O-])O)cc3)C(=O)N(Cc3cccc4c(C(C)=O)cn(C)c34)C[C@@H]2N1C(=O)NCc1ccccc1.[Na+] [Compound 1-1]
Tumor size on D22 compared with vehicle control (NCI-H1975 cells [2]; D22, dose not given): significantly reduced | Mortality (NCI-H1975 cells [2]; [7]): 0/7 | TGI % D22 (NCI-H1975 cells [2]; [7]): 74% | Tumor size @D 22) (Mean ± S.E. mm3) (NCI-H1975 cells [2]; [7]): 307 ± 97 mm3 | Mortality (NCI-H1975 cells [2]; [8]): 0/7 | TGI % D22 (NCI-H1975 cells [2]; [8]): 109% | Tumor size @D 22) (Mean ± S.E. mm3) (NCI-H1975 cells [2]; [8]): 57 ± 22 mm3 | TGI % (NCI-H1975 cells [2]; dose not given): 100% | Mortality (NCI-H460 cells; [9]): 0/6 | TGI % D12 (NCI-H460 cells; [9]): 25% | Tumor size @D 12 (Mean ± S.E. mm^3) (NCI-H460 cells; [9]): 1196 ± 247 mm^3 | MBL (%) (NCI-H460 cells; Group 2: 1-1 150 mg/kg iv, six injections (D1, 3, 5, 8, 10, 12), @D2): 4 (@D2) % | TGI % (NCI-H460 cells): 25% | Mortality (HCC827 cells; [10]): 0/7 | TGI % D33 (HCC827 cells; [10]): 50% | Tumor size @D 33 (Mean ± S.E. mm^3) (HCC827 cells; [10]): 380 ± 29 mm^3 | MBL (%) (HCC827 cells; [10]): 1 (D11) % | Mortality (HCC827 cells; [11]): 0/7 | TGI % D33 (HCC827 cells; [11]): 68% | Tumor size @D 33 (Mean ± S.E. mm^3) (HCC827 cells; [11]): 262 ± 30 mm^3 | MBL (%) (HCC827 cells; [11]): 1 (D11) % | TGI % (HCC827 cells): 78%

SMILES: C=CCN1CC(=O)N2[C@@H](Cc3ccc(OP(=O)(O)O)cc3)C(=O)N(Cc3cccc4c(-c5ccc(C(=O)N6CCCCC6)cc5)cn(C)c34)C[C@@H]2N1C(=O)NCc1ccccc1 [Compound 1-3]
Mortality (NCI-H1975 cells [3]; [12]): 0/6 | TGI % D22 (NCI-H1975 cells [3]; [12]): 62% | Tumor size @D 22 (Mean ± S.E. mm^3) (NCI-H1975 cells [3]; [12]): 571 ± 38 mm^3 | MBL (%) (NCI-H1975 cells [3]; Group 2: 40 mg/kg IV QDx5 for 2 weeks, D19): 4 (D19) %

SMILES: C=CCN1CC(=O)N2[C@@H](Cc3ccc(OP(=O)(O)O)cc3)C(=O)N(Cc3cccc4c(C(=O)Nc5ccc(N(C)C)nc5)cn(C)c34)C[C@@H]2N1C(=O)NCc1ccccc1 [Compound 1-5]
Mortality (NCI-H1975 cells [3]; [13]): 0/6 | TGI % D22 (NCI-H1975 cells [3]; [13]): 71% | Tumor size @D 22 (Mean ± S.E. mm^3) (NCI-H1975 cells [3]; [13]): 464 ± 45 mm^3 | MBL (%) (NCI-H1975 cells [3]; Group 3: 30 mg/kg IV QDx5 for 2 weeks, D12): 5 (D12) %

SMILES: C=CCN1CC(=O)N2[C@@H](Cc3ccc(O)cc3)C(=O)N(Cc3cccc4c(C(=O)Nc5ccc(NCCN6CCOCC6)nc5)cn(C)c34)C[C@@H]2N1C(=O)NCc1ccccc1.Cl [Compound 1-7]
Mortality (NCI-H1975 cells [4]): 0/5 | TGI % D22 (NCI-H1975 cells [4]): 41% | Tumor size @D 22 (Mean ± S.E. mm^3) (NCI-H1975 cells [4]): 410 mm^3

SMILES: CC(=O)O[C@H]1C(=O)[C@@]2(C)[C@H]([C@H](OC(=O)c3ccccc3)[C@]3(O)C[C@H](OC(=O)[C@H](O)[C@@H](NC(=O)c4ccccc4)c4ccccc4)C(C)=C1C3(C)C)[C@]1(OC(C)=O)CO[C@@H]1C[C@@H]2O [Paclitaxel, reference compound]
Mortality (NCI-H1975 cells [2]; [14]): 0/7 | TGI % D22 (NCI-H1975 cells [2]; [14]): 28% | Tumor size @D 22) (Mean ± S.E. mm3) (NCI-H1975 cells [2]; [14]): 736 ± 79 mm3 | TGI % (NCI-H1975 cells [2]; dose not given): >30% | Mortality (NCI-H460 cells; [15]): 0/6 | TGI % D12 (NCI-H460 cells; [15]): 15% | Tumor size @D 12 (Mean ± S.E. mm^3) (NCI-H460 cells; [15]): 1339 ± 260 mm^3 | TGI % (NCI-H460 cells): >15% | Mortality (HCC827 cells; [16]): 0/6 | TGI % D33 (HCC827 cells; [16]): 18% | Tumor size @D 33 (Mean ± S.E. mm^3) (HCC827 cells; [16]): 557 ± 83 mm^3 | TGI % (HCC827 cells): >18%
